The values that follow come from US11339170B1, “Spiropyrrolidine derived antiviral agents” (priority 2021, dated 2022).

For test [1], the target named is SARS-CoV-2 3CL-protease (Severe acute respiratory syndrome coronavirus 2 (2019-nCoV) (SARS-CoV-2), UniProt P0DTD1). The experiment in a line: SARS-CoV-2 3C-like (3CL) protease fluorescence assay (FRET). It is filed as biochemical.
For test [2], the system named is 229E human corona virus (hCoV). The experiment in a line: 229E live virus assay (CPE, ATPlite readout) in MRC-5 cells. The format is cell-based, hCoV-229E. The settings on record: Human coronavirus 229E, MRC5, 144 h, read-out: 229E EC50.

By IC50 is commonly meant the concentration that inhibits the measured activity by half. Low values mean higher potency, high ones lower potency. What is called EC50 is the concentration at which the effect is half-maximal.

For the compound `CC(C)C[C@@H](C(=O)N1C[C@]2(C[C@H]1C#N)C(=O)Nc1ccccc12)N(C)C(=O)C(=O)NC(C)(C)C` [Compound 44], the IC50 in test [1] was less than 100 nM. In addition, in test [2], the EC50 is less than 100 nM.

In the case of `CN(C(=O)C(=O)Nc1ccc(F)c(F)c1)[C@@H](Cc1ccccc1)C(=O)N1C[C@]2(C[C@H]1C#N)C(=O)Nc1ccccc12` [Compound 45], the IC50 in test [1] is less than 100 nM. Besides, the EC50 in test [2] is less than 100 nM.

`[2H]C([2H])([2H])N(C(=O)C(=O)Nc1ccc(F)c(F)c1)[C@@H](Cc1ccc(F)cc1)C(=O)N1C[C@]2(C[C@H]1C#N)C(=O)Nc1ccccc12` [Compound 46]: the IC50 in test [1] is less than 100 nM. Besides, the EC50 in test [2] is less than 100 nM.

In test [1], `[2H]C([2H])([2H])N(C(=O)C(=O)Nc1ccc(F)c(F)c1)[C@@H](CCCC)C(=O)N1C[C@]2(C[C@H]1C#N)C(=O)Nc1ccccc12` [Compound 47] gave an IC50 of less than 100 nM. The EC50 in test [2] was less than 100 nM.

For `[2H]C([2H])([2H])N(C(=O)C(=O)C(C)(C)C)[C@@H](CCCC)C(=O)N1C[C@]2(C[C@H]1C#N)C(=O)Nc1ccccc12` [Compound 48], the IC50 in test [1] is less than 100 nM. Further, the EC50 in test [2] was less than 100 nM.

Consider `[2H]C([2H])([2H])N(C(=O)C(=O)NC(C)(C)C)[C@@H](CCCC)C(=O)N1C[C@]2(C[C@H]1C#N)C(=O)Nc1ccccc12` [Compound 49], for which, in test [1], the IC50 is less than 100 nM. The EC50 in test [2] is less than 100 nM.

In test [1], `[2H]C([2H])([2H])N(C(=O)C(=O)Nc1cnc2ccccc2c1)[C@@H](CCCC)C(=O)N1C[C@]2(C[C@H]1C#N)C(=O)Nc1ccccc12` [Compound 50] showed an IC50 of less than 100 nM. For the same compound, the EC50 in test [2] was less than 100 nM.

Consider `[2H]C([2H])([2H])N(C(=O)C(=O)Nc1cnc2ccccc2c1)[C@@H](CC1CC1)C(=O)N1C[C@]2(C[C@H]1C#N)C(=O)Nc1ccccc12` [Compound 51], for which, in test [1], the IC50 was less than 100 nM. For the same compound, the EC50 in test [2] was less than 100 nM.

`CC(C)C[C@@H](C(=O)N1C[C@]2(C[C@H]1C#N)C(=O)Nc1ccccc12)N(C)C(=O)C(=O)Nc1nc2ccccc2[nH]1` [Compound 52] returned an IC50 in test [1] of 100 to 1000 nM. Further, in test [2], the EC50 was less than 100 nM.

With `CC(C)C[C@@H](C(=O)N1C[C@]2(C[C@H]1C#N)C(=O)Nc1ccccc12)N(C)C(=O)C(=O)Nc1nc2ccccc2o1` [Compound 53], the IC50 in test [1] was greater than 1000 nM. For the same compound, in test [2], the EC50 lay within 100 to 1000 nM.

`[2H]C([2H])([2H])N(C(=O)C(=O)Nc1ccc(C(F)(F)F)cc1C(F)(F)F)[C@@H](CC1CC1)C(=O)N1C[C@]2(C[C@H]1C#N)C(=O)Nc1ccccc12` [Compound 68] displayed an IC50 in test [1] of less than 100 nM. Further, the EC50 in test [2] was less than 100 nM.

On to `CC(C)(C)C[C@H](NC(=O)C(=O)NC1CC1)C(=O)N1C[C@]2(C[C@H]1C#N)C(=O)Nc1ccccc12` [Compound 70], for which the IC50 in test [1] was less than 100 nM. Further, in test [2], the EC50 was less than 100 nM.

Compound `CC(C)(C)C[C@H](NC(=O)C(=O)Nc1c(F)cccc1F)C(=O)N1C[C@]2(C[C@H]1C#N)C(=O)Nc1ccccc12` [Compound 71] returned an IC50 in test [1] of less than 100 nM. In test [2], the EC50 is less than 100 nM.

The compound `CC(C)(C)C[C@H](NC(=O)C(=O)NC1(c2ccc(F)cc2F)CC1)C(=O)N1C[C@]2(C[C@H]1C#N)C(=O)Nc1ccccc12` [Compound 72] returned an IC50 in test [1] of less than 100 nM. In addition, in test [2], the EC50 is less than 100 nM.
